{"source": "paper PMC6214026", "about": "“PSMA-Oriented Target Delivery of Novel Anticancer Prodrugs: Design, Synthesis, and Biological Evaluations of Oligopeptide-Camptothecin Conjugates” (International Journal of Molecular Sciences, 2018)", "key": {"[1]": {"system": "DU145 cells (non-PSMA-expressing)", "test": "cells", "type": "cell-based, human", "details": "MTT, 72 h, mean ± SD, n = 3; read-out: IC50 DU145", "method": "(§1) The cytotoxicities of PSMA-activated prodrug CPT-HT-J-ZLn and PSMA hydrolysate CPT-D-GLn were evaluated by MTT assays on PSMA-expressing (PSMA^+) cancer cell LNCaP-FGC, non-PSMA-expressing (PSMA^−) cancer cells HepG2, MCF-7, Hela, DU145, and PC-3, and normal cells MDCK, LO2, respectively, using CPT as a positive control.\n(§2) The human prostate cancer cell line (LNCaP-FGC), human prostate cancer cell line (PC-3), human prostate cancer cell line (DU-145), human breast cancer cell line (MCF-7), human hepatocellular carcinoma cell line (HepG2), human cervical cancer cell line (Hela), were obtained from the Chinese Academy of Medical Sciences and Peking Union Medical College. The cultures of the cells were maintained as a monolayer in RPMI 1640 or DMEM supplemented with 10% (v/v) heat inactivated fetal bovine serum and 1% (v/v) enicillin/streptomycin (Corning, New York, NY, USA) and incubated at 37 °C in a humidified atmosphere with 5% CO2. The tested compounds were dissolved in DMSO (Sigma, St. Louis, MO, USA) and added at required concentrations to the cell culture.\n(§3) The cytotoxicity of all the tested compounds was evaluated in vitro via the MTT method against PSMA-expressing LNCaP-FGC cells and non-PSMA-expressing cells HepG2, Hela, MCF-7, DU145, PC-3 cells using CPT as the positive control. Tumor cells growing in the logarithmic phase were seeded in 96-well plates at a density 3 × 10^3 cells/well and incubated overnight. The following day, cells were then treated with serial dilutions of the tested compounds for 72 h. At the end of this incubation, 20 µL of 5 mg/mL methylthiazol tetrazolium (MTT) was added to each well and incubation proceeded at 37 °C for another 4 h. After the supernatant medium was thrown away, 150 µL dimethylsulphoxide (DMSO) were added to each well and absorbance was measured at 490 nm using a plate reader (BIORAD 550 spectrophotometer, Bio-rad Life Science Development Ltd., Berkeley, CA, USA). Experiments were performed in triplicate and the values were the average of three (n = 3) independent experiments. The concentration of the compound that results in 50% growth inhibition corresponds to the IC50. Tumor cell growth inhibitory rate was calculated using Equation (1): % inhibition = (1 − Sample group OD/Control group OD) × 100%(1)"}, "[2]": {"system": "HepG2 cells (non-PSMA-expressing)", "test": "cells", "type": "cell-based, human", "details": "MTT, 72 h, mean ± SD, n = 3; read-out: IC50 HepG2", "method": "as §1, §2, §3"}, "[3]": {"system": "MCF-7 cells (non-PSMA-expressing)", "test": "cells", "type": "cell-based, human", "details": "MTT, 72 h, mean ± SD, n = 3; read-out: IC50 MCF-7", "method": "as §1, §2, §3"}, "[4]": {"system": "PC-3 cells (non-PSMA-expressing)", "test": "cells", "type": "cell-based, human", "details": "MTT, 72 h, mean ± SD, n = 3; read-out: IC50 PC-3", "method": "as §1, §2, §3"}, "[5]": {"system": "LNCaP-FGC cells (PSMA-expressing)", "test": "MTT cytotoxicity assay, LNCaP-FGC", "type": "cell-based, human", "method": "as §1, §2, §3"}, "[6]": {"system": "HeLa cells (non-PSMA-expressing)", "test": "MTT cytotoxicity assay, HeLa", "type": "cell-based, human", "details": "72 h, mean ± SD, n = 3", "method": "as §1\nThe tested compounds were dissolved in DMSO (Sigma, St. Louis, MO, USA) and added at required concentrations to the cell culture.\nas §3, with “experiments.” for “experiments. The concentration of the compound that results in 50% growth inhibition corresponds to the IC50. Tumor cell growth inhibitory rate was calculated using Equation (1): % inhibition = (1 − Sample group OD/Control group OD) × 100%(1)”"}, "LO2 cells": {"system": "LO2 cells", "test": "cells", "type": "cell-based", "details": "MTT, 72 h, normal cells; read-out: IC50 LO2", "method": "as §1, §3"}, "MDCK cells": {"system": "MDCK cells", "test": "cells", "type": "cell-based", "details": "MTT, 72 h, normal cells; read-out: IC50 MDCK", "method": "as §1, §3"}, "LNCaP-FGC (PSMA+) cells [7]": {"system": "LNCaP-FGC (PSMA+) cells", "test": "In vitro cellular uptake by CLSM, LNCaP-FGC", "type": "cell-based, human", "details": "10 µM", "description": "(§4) In addition to solubilization, the pentapeptide serves to mask the cytotoxicity by preventing nonspecific uptake of drug into cells due to the presence of negative charged amino acids. Upon cleavage of the prodrug by PSMA within the PSMA-expressing cells, the active compound was able to enter cells. […] The nucleus was stained with PI (red) and the fluorescence of CPT was pseudo-colored with blue.\n(§5) To evaluate the cellular uptake of the CPT-HT-J-ZL12, LNCaP-FGC (PSMA^+) and HepG2 (PSMA^−) cells were seeded at a density of 1 × 10^4 cells/well in 35 mm glass bottom dishes with 1 mL complete 1640 medium. After incubation for 24 h, the culture medium was replaced with 2 mL of fresh medium containing 10 µM CPT-HT-J-ZL12. Then the cells were incubated further for different incubation time periods (1 and 4 h). Following the removal of the culture media, cells were washed with cold PBS, fixed with 70% ethanol for 30 min at 4 °C. Subsequently, the cells were stained with 5 μg/mL propidium iodide (excitation wavelength was 561 nm) for 5 min to visualize nucleus. The cells were observed by a UltraView RS confocal laser scanning microscopy (PerkinElmer, Waltham, MA, USA)."}, "HepG2 (PSMA−) cells [8]": {"system": "HepG2 (PSMA−) cells", "test": "In vitro cellular uptake by CLSM, HepG2", "type": "cell-based, human", "details": "HepG2, 10 µM, 1 h and 4 h", "description": "as §4, §5"}, "LNCaP-FGC (PSMA+) cells [9]": {"system": "LNCaP-FGC (PSMA+) cells", "test": "Cell cycle by PI staining flow cytometry, LNCaP-FGC", "type": "cell-based, human", "details": "for percentage of cells in S phase (Dip S): 72 h", "method": "To further study CPT-HT-J-ZL12-induced growth inhibition, the cell cycle changes were evaluated on LNCaP-FGC (PSMA^+) using flow cytometric methods.\nThe cell cycle was measured using PI staining and flow cytometry analysis according to the instructions of the manufacturer (Cell Cycle and Apoptosis Analysis Kit, Beyotime Biotechnology, Jiangsu, China). LNCaP-FGC cells (2 × 10^4 cells/mL) in logarithmic growth phase were seeded in 6-well culture plate and incubated for 24 h at 37 °C in incubator with 5% CO2. After exposure to different concentrations of CPT-HT-J-ZL12 (0.63, 1.25, 2.50 μM) for 72 h, cells were harvested and washed twice with cold PBS. Then the cells were centrifuged at 2400× g for 10 min, resuspended in 1 mL 70% cold ethanol and fixed for 12 h at −20 °C. After being washed twice with cold PBS, the cells were incubated with 0.5 mL propidium iodide for 30 min at 37 °C. Detection of the cell cycle was carried out by the Flow Cytometer at 488 nm excitation wavelength"}, "HepG2 (PSMA−) cells [10]": {"system": "HepG2 (PSMA−) cells", "test": "Apoptosis by Annexin V-FITC/PI flow cytometry, HepG2", "details": "72 h", "protocol": "(§6) The apoptotic effect was determined by counting the apoptosis ratios (including the early and late apoptosis ratios).\n(§7) To determine early apoptosis and secondary necrosis, LNCaP-FGC (PSMA^+) and HepG2 (PSMA^−) cells were stained with annexin-V FITC apoptosis detection kit (Beijing BioDee Biotech. Co., Ltd., Beijing, China) as per the manufacturer’s instructions. […] The resulting pellet was mixed with 200 µL binding buffer of the Annexin V-FITC kit, then 5 µL FITC labeled annexin V was added and mixed gently. After incubation at 4 °C for 10 min in the dark, 5 µL PI was added and mixed gently. Then the cells were immediately analyzed with a flow cytometry."}, "LNCaP-FGC (PSMA+) cells [11]": {"system": "LNCaP-FGC (PSMA+) cells", "test": "Apoptosis by Annexin V-FITC/PI flow cytometry, LNCaP-FGC", "details": "72 h", "protocol": "as §6, §7"}}, "note": "Values joined by “and” are separate entries in the source; they are usually repeats but may differ in a detail not shown here. Identical values can stand only once."}
{"smiles": "CC[C@@]1(OC(=O)CCCCCCCCCCCNC(=O)[C@@H](N)CCC(=O)N[C@@H](CCC(=O)N[C@@H](CCC(=O)N[C@@H](CC(=O)O)C(=O)N[C@@H](CCC(=O)O)C(=O)O)C(=O)O)C(=O)O)C(=O)OCc2c1cc1n(c2=O)Cc2cc3ccccc3nc2-1", "note": "[CPT-HT-J-ZL12, (3S,6S,11S,16S,21S)-21-amino-6-(carboxymethyl)-35-(((S)-4-ethyl-3,14-dioxo-3,4,12,14-tetrahydro-1H-pyrano[3′,4′:6,7]indolizino[1,2-b]quinolin-4-yl)oxy)-5,8,13,18,22,35-hexaoxo-4,7,12,17,23-pentaazapentatriacontane-1,3,11,16-tetracarboxylic acid]", "values": [{"measurement": "IC50", "setting": "[1]", "value": "5.4 ± 1.22", "unit": "µM"}, {"measurement": "IC50", "setting": "[2]", "value": "> 40", "unit": "µM"}, {"measurement": "IC50", "setting": "[3]", "value": "21.7 ± 4.96", "unit": "µM"}, {"measurement": "IC50", "setting": "[4]", "value": "43 ± 3.69", "unit": "µM"}, {"measurement": "cytotoxicity against LNCaP-FGC higher than against DU145", "setting": "[5]; LNCaP-FGC (PSMA+) vs DU145", "value": 5, "unit": "fold"}, {"measurement": "cytotoxicity against LNCaP-FGC higher than against Hela", "setting": "[5]; LNCaP-FGC (PSMA+) vs Hela", "value": "40 fold and ~ 40 fold"}, {"measurement": "cytotoxicity against LNCaP-FGC higher than against HepG2", "setting": "[5]; LNCaP-FGC (PSMA+) vs HepG2", "value": "40 fold and ~ 40 fold"}, {"measurement": "cytotoxicity against LNCaP-FGC higher than against MCF-7", "setting": "[5]; LNCaP-FGC (PSMA+) vs MCF-7", "value": 21, "unit": "fold"}, {"measurement": "IC50", "setting": "[5]; MTT, 72 h, mean ± SD, n = 3, PSMA+, read-out: IC50 LNCaP-FGC", "value": "1 ± 0.2", "unit": "µM"}, {"measurement": "IC50", "setting": "[6]", "value": "> 40", "unit": "µM"}, {"measurement": "IC50", "setting": "LO2 cells", "value": "> 40", "unit": "µM"}, {"measurement": "IC50", "setting": "MDCK cells", "value": "> 40", "unit": "µM"}, {"measurement": "cellular uptake (blue CPT fluorescence intensity)", "setting": "LNCaP-FGC (PSMA+) cells [7]; 1 h", "value": "stronger"}, {"measurement": "cellular uptake (blue CPT fluorescence)", "setting": "LNCaP-FGC (PSMA+) cells [7]; 4 h", "value": "increased with the incubation time"}, {"measurement": "cellular uptake (blue CPT fluorescence)", "setting": "HepG2 (PSMA−) cells [8]", "value": "almost no blue fluorescence"}, {"measurement": "percentage of cells in S phase (Dip S)", "setting": "LNCaP-FGC (PSMA+) cells [9]; 1.25 µM", "value": 70.86, "unit": "%"}, {"measurement": "percentage of cells in S phase (Dip S)", "setting": "LNCaP-FGC (PSMA+) cells [9]; 2.50 µM", "value": 83.66, "unit": "%"}, {"measurement": "effect on cell cycle", "setting": "LNCaP-FGC (PSMA+) cells [9]; 0.63 to 2.50 µM", "value": "induce cell cycle arrest at the S phase"}, {"measurement": "percentage of apoptotic cells", "setting": "HepG2 (PSMA−) cells [10]; HepG2, 20.00 µM", "value": 19.80, "unit": "%"}, {"measurement": "percentage of apoptotic cells", "setting": "HepG2 (PSMA−) cells [10]; HepG2, 40.00 µM", "value": 28.30, "unit": "%"}, {"measurement": "percentage of apoptotic cells", "setting": "HepG2 (PSMA−) cells [10]; HepG2, 80.00 µM", "value": 30.10, "unit": "%"}, {"measurement": "apoptosis ratio (early and late)", "setting": "LNCaP-FGC (PSMA+) cells [11]; 0.63 µM", "value": 29.90, "unit": "%"}, {"measurement": "apoptosis ratio (early and late)", "setting": "LNCaP-FGC (PSMA+) cells [11]; 1.25 µM", "value": 33.30, "unit": "%"}, {"measurement": "apoptosis ratio (early and late)", "setting": "LNCaP-FGC (PSMA+) cells [11]; 2.50 µM", "value": 48.90, "unit": "%"}]}
